{"source": "patent US8431564B2", "about": "(Merck Sharp & Dohme B.V., priority 2009, dated 2013)"}
{"target": "T1, human FSH receptor (Homo sapiens, UniProt P23945)", "T1 construct": "expressed in transfected cells; host or cells: CHO (Chinese Hamster Ovary) cells, stably transfected, cotransfected with CRE-luciferase reporter", "T1 sequence (P23945 18-695)": "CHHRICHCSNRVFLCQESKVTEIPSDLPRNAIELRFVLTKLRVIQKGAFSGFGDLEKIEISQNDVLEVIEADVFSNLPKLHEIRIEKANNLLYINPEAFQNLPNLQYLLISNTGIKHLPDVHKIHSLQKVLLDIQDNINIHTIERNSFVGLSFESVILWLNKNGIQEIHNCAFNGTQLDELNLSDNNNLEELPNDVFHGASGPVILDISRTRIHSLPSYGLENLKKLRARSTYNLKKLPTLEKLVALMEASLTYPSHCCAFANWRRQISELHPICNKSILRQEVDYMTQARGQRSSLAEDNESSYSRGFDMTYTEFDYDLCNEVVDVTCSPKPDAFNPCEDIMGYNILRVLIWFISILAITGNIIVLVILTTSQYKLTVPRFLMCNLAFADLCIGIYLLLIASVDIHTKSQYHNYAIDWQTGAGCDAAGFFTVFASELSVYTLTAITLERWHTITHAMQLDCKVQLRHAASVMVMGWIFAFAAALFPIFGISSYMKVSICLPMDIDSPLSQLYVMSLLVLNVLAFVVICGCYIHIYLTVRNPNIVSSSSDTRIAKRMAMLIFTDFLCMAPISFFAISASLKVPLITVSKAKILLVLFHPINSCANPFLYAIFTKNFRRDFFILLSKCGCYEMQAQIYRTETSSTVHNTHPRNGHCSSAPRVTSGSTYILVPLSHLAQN", "assay": "Agonistic activity at the human FSH receptor expressed in CHO cells (CRE-luciferase reporter)", "format": "cell-based", "details": "CHO cells stably transfected with human FSH receptor and CRE/luciferase reporter; 4 hours incubation; pEC50 is -log EC50; read-out: hFSHRago (CHO luc) pEC50 (converted)", "method_in_brief": "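Stably transfected CHO cells with CRE-driven firefly luciferase reporter, incubated 4 h at 37° C. with compound (0.0316 nM–10.0 μM, duplicate, 1% DMSO final) in insulin/transferrin-supplemented medium. Luminescence after lysis; EC50 relative to compound's own maximum, efficacy as percent of recombinant human FSH maximum.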", "units": {"EC50": "nM"}}
{"smiles": "COc1cc2c(cc1C(=O)N1CCOCC1)-c1c(-c3cccs3)c3c(n1CC2)C(=O)N(C(C)(C)C)CCCC3", "note": "[Compound 26c4, 9-tert-butyl-3-methoxy-2-(4-morpholinylcarbonyl)-14-(thiophen-2-yl)-5,6,10,11,12,13-hexahydroazocino[4′,3′:4,5]pyrrolo[2,1-a]isoquinolin-8(9H)-one]", "EC50": 9.77}
{"smiles": "COc1cc2c(cc1C(=O)NCC(O)CO)-c1c(-c3cccs3)c3c(n1CC2)C(=O)N(C(C)(C)C)CCCC3", "note": "(stereo not shown) [Compound 26c5, 9-tert-butyl-3-methoxy-2-(2,3-dihydroxy-1-propylaminocarbonyl)-14-(thiophen-2-yl)-5,6,10,11,12,13-hexahydroazocino[4′,3′:4,5]pyrrolo[2,1-a]isoquinolin-8(9H)-one]", "EC50": 0.871}
{"smiles": "COCC(O)CNC(=O)c1cc2c(cc1OC)CCn1c3c(c(-c4cccs4)c1-2)CCCCN(C(C)(C)C)C3=O", "note": "(stereo not shown) [Compound 26c6, 9-tert-butyl-3-methoxy-2-(2-hydroxy-3-methoxy-1-propylaminocarbonyl)-14-(thiophen-2-yl)-5,6,10,11,12,13-hexahydroazocino[4′,3′:4,5]pyrrolo[2,1-a]isoquinolin-8(9H)-one]", "EC50": 1.07}
{"smiles": "COc1cc2c(cc1C(=O)NCCO)-c1c(-c3cccs3)c3c(n1CC2)C(=O)N(C(C)(C)C)CCCC3", "note": "[Compound 26c7, 9-tert-butyl-2-(2-hydroxyethylaminocarbonyl)-3-methoxy-14-(thiophen-2-yl)-5,6,10,11,12,13-hexahydroazocino[4′,3′:4,5]pyrrolo[2,1-a]isoquinolin-8(9H)-one]", "EC50": 0.427}
{"smiles": "COc1cc2c(cc1C(=O)N(C)CCO)-c1c(-c3cccs3)c3c(n1CC2)C(=O)N(C(C)(C)C)CCCC3", "note": "[Compound 26c8, 9-tert-butyl-2-(N-2-hydroxyethyl,N-methylaminocarbonyl)-3-methoxy-14-(thiophen-2-yl)-5,6,10,11,12,13-hexahydroazocino[4′,3′:4,5]pyrrolo[2,1-a]isoquinolin-8(9H)-one]", "EC50": 5.37}
{"smiles": "C=CCCNC(=O)c1cc2c(cc1OC)CCn1c3c(c(-c4cccs4)c1-2)CCCCN(C(C)(C)C)C3=O", "note": "[Compound 26c9, 9-tert-butyl-2-(4-butenylaminocarbonyl)-3-methoxy-14-(thiophen-2-yl)-5,6,10,11,12,13-hexahydroazocino[4′,3′:4,5]pyrrolo[2,1-a]isoquinolin-8(9H)-one]", "EC50": 0.468}
{"smiles": "COc1cc2c(cc1C(=O)NCCC(O)CO)-c1c(-c3cccs3)c3c(n1CC2)C(=O)N(C(C)(C)C)CCCC3", "note": "(stereo not shown) [Compound 26c10, 9-tert-butyl-2-(3,4-dihydroxybutylaminocarbonyl)-3-methoxy-14-(thiophen-2-yl)-5,6,10,11,12,13-hexahydroazocino[4′,3′:4,5]pyrrolo[2,1-a]isoquinolin-8(9H)-one]", "EC50": 1.95}
{"smiles": "COc1cc2c(cc1F)-c1c(-c3cccs3)c3c(n1CC2)C(=O)N(C(C)(C)C)CCCC3", "note": "[Compound 27c, 9-tert-butyl-2-fluoro-3-methoxy-14-(thiophen-2-yl)-5,6,10,11,12,13-hexahydroazocino[4′,3′:4,5]pyrrolo[2,1-a]isoquinolin-8(9H)-one]", "EC50": 30.2}
{"smiles": "COc1cc2c(cc1C(=O)CC[C@@H](O)CO)-c1c(-c3cccs3)c3c(n1CC2)C(=O)N(C(C)(C)C)CCCC3", "note": "[Compound 28b, (R)-9-tert-butyl-2-(4,5-dihydroxypentanoyl)-3-methoxy-14-(thiophen-2-yl)-5,6,10,11,12,13-hexahydroazocino[4′,3′:4,5]pyrrolo[2,1-a]isoquinolin-8(9H)-one]", "EC50": 2.63}
{"smiles": "COc1cc2c(cc1NS(C)(=O)=O)-c1c(-c3cccs3)c3c(n1CC2)C(=O)N(C(C)(C)C)CCCC3", "note": "[Compound 29a, 9-tert-butyl-3-methoxy-2-(methylsulfonamido)-14-(thiophen-2-yl)-5,6,10,11,12,13-hexahydroazocino[4′,3′:4,5]pyrrolo[2,1-a]isoquinolin-8(9H)-one]", "EC50": 1.95}
